The RepoRT retention time repository (doi:10.1021/acs.analchem.2c02893)

test: RP, Thermo Scientific Acclaim RSLC 120 C18, 100 × 2.1 mm, 2.2 µm, 30 °C, 0.2 mL/min, estimated dead time 1.1 min; A: 90% water + 10% methanol + 0.01% formic acid + 5 mM ammonium formate, pH 3.61; B: methanol + 0.01% formic acid + 5 mM ammonium formate, pH 3.61; gradient (min/%B) 0/1 1/1 2/39 13/99.9 15/99.9 15.1/1 20.1/1; conditions: stereoisomer not certain

In order of rising LC retention time:
1. C[N+](C)(C)CCCl [Chlormequat]  1.67 min
2. O=C(O)Cc1c[nH]c2ccc(O)cc12 [5-Hydroxyindole-3-acetic acid]  3.93 min
3. CNC(C)C(=O)c1cccc(F)c1 (centres undefined) [Methcathinone (3-F-)]  3.94 min
4. CN1CSC(=S)N(C)C1 [Dazomet]  3.97 min
5. COc1cc(NS(=O)(=O)c2ccc(N)cc2)ncn1 [Sulfamonomethoxine]  4.75 min
6. O=C(O)Cc1c[nH]c2ccccc12 [Indole-3-acetic acid]  5.78 min
7. CC1CCCC(C)N1NC(=O)c1ccc(Cl)c(S(N)(=O)=O)c1 (centres undefined) [Clopamide]  6.01 min
8. CN(C)CCOC(=O)C(c1ccccc1)C1(O)CCCC1 (centres undefined) [Cyclopentolate]  6.16 min
9. CN(C)CCN1C(=O)c2ccccc2Nc2cc(Cl)ccc21 [Clobenzepam]  6.32 min
10. O=C1CN(O)C(c2ccccc2)=c2cc(Cl)ccc2=N1 [Demoxepam]  7.14 min
11. N#Cc1ccc2c(c1)N(CCCN1CCC(O)CC1)c1ccccc1S2 [Periciazine]  7.45 min
12. COc1ccnc(CS(=O)c2nc3ccc(OC(F)F)cc3[nH]2)c1OC (centres undefined) [Pantoprazole]  7.46 min
13. CCCc1cc(OC)c(CCN)cc1OC [2 C-P]  7.46 min
14. O=C(Nc1ccccc1)c1ccccc1I [Benodanil]  8.02 min
15. CN(C)CCCN1c2ccccc2CCc2ccccc21 [Imipramine]  8.08 min
16. CC12CCC3=C4CCC(=O)C=C4CCC3C1CCC2(O)CC#N (centres undefined) [Dienogest]  8.09 min
17. CCCc1nc(C)c2c(=O)[nH]c(-c3cc(S(=O)(=O)N4CCN(CC)CC4)ccc3OCC)nn12 [Vardenafil]  8.11 min
18. C#CC(C)N(C)C(=O)Nc1ccc(Cl)cc1 (centres undefined) [Buturon]  8.35 min
19. CCOP(=O)(OCC)SCSCC [Phorate-oxon]  8.6 min
20. COC(=O)COCCN1CCN(C(c2ccccc2)c2ccc(Cl)cc2)CC1 (centres undefined) [Cetirizine-Methyl ester]  8.86 min
21. CC(=O)C1(O)CCC2C3CC(C)C4=CC(=O)C=CC4(C)C3(F)C(O)CC21C (centres undefined) [Fluorometholone]  8.91 min
22. COC(=O)COc1ccc(Cl)cc1Cl [2.4-D-methylester]  9.61 min
23. CC1=CC(=O)N2CC(=O)N(C)c3ccc(Cl)cc3C2(c2ccccc2)O1 (centres undefined) [Ketazolam]  9.79 min
24. COc1cc(CNC(=O)CCCCC=CC(C)C)ccc1O [Capsaicin]  9.83 min
25. O=C(NCc1ccccc1)c1cn(CCCCCF)c2ccccc12 [SDB-006-5F]  10 min
26. CC(C)N(C(=O)COc1nnc(C(F)(F)F)s1)c1ccc(F)cc1 [Flufenacet]  10.1 min
27. CCCc1nc2c(C)cc(-c3nc4ccccc4n3C)cc2n1Cc1ccc(-c2ccccc2C(=O)O)cc1 [Telmisartan]  10.3 min
28. O=C(Oc1cccc2cccnc12)c1cn(CCCCCF)c2ccccc12 [PB-22-5F]  10.7 min
29. CC(C)(c1ccc(OCC2CO2)cc1)c1ccc(OCC2CO2)cc1 (centres undefined) [Bisphenol A diglycidyl ether]  10.8 min
30. CC(C)n1c(C=CC(O)CC(O)CC(=O)O)c(-c2ccc(F)cc2)c2ccccc21 (centres undefined) [Fluvastatin]  10.9 min
31. O=C(Nc1cccc2ccccc12)c1cn(CCCCCF)c2ccncc12 [PCN-5F]  11.8 min
32. CC(C)N(C(=O)SCC(Cl)=C(Cl)Cl)C(C)C [Triallate]  12.7 min
33. Cc1c(F)c(F)c(COC(=O)C2C(C=C(Cl)C(F)(F)F)C2(C)C)c(F)c1F.Cc1c(F)c(F)c(COC(=O)C2C(C=C(Cl)C(F)(F)F)C2(C)C)c(F)c1F (centres undefined) [Tefluthrin]  13.4 min
34. CCCCC(CC)COC(=O)c1ccccc1C(=O)OCC(CC)CCCC (centres undefined) [Phthalate-bis-(2-ethylhexyl). DEHP]  15 min
